From EP1671630A2, “L-Arginine based formulations for treating diseases and methods of using the same” (Angiogenix, Inc., priority 1999, dated 2000)
Like-named read-outs stand apart in the source and are kept apart here.

Key:
Bovine aortic EC = assay: LA transport after exposure to homocysteine and its thiolactone; assay type: cell-based
Description: A third aspect of the present invention is the treatment, prevention, or amelioration of homocysteinemia with L-arginine alone. Hyperhomocysteinemia is associated with vascular EC dysfunction and increased risk for atherosclerosis and atherothrombosis. Free radical formation during homocyst(e)ine auto-oxidation has been implicated in its vascular toxicity. Long-term EC exposure to homocyst(e)ine limits nitric oxide synthase (NOS) activity, increasing EC vulnerability to oxidative injury (Stamler et al., 1993). To see whether these effects could be due to alterations in cellular availability of the NOS substrate LA, we tested the effects on LA transport of D,L-homocysteine (DLH) and an auto-oxidation product, L-homocysteine thiolactone (LHT). Bovine aortic EC were exposed to DLH and LHT (1.1-5 mM) for 6 and 24 hours and then incubated with […] [^3H]-LA for 1 min. Cells were washed with ice cold buffer, lysed in 0.5% SDS in 0.1 N NaOH and radioactivity was determined. DLH increased LA uptake in a concentration dependent manner at 6 hr. […] However, after 24 hr. exposure LA uptake was decreased (25-40%).

[1] = system: bovine aortic endothelial cells (BAEC); assay: Cellular superoxide anion formation (SOD-inhibitable reduction of ferricytochrome C); assay type: cell-based; settings: for inhibition of O2^•- production induced by A-23187: 5 × 10^-4M, A-23187 1 µM; for inhibition at 500 µM: Bos taurus, BAEC
Protocol: Cellular superoxide anion formation in the presence of NOS agonists. […] After reaching confluency, cells were washed 3 times (3 ml) with Dulbecco's phosphate buffered saline (DPBS) and 2 coverslips were placed in a disposable plastic cuvette facing each other. DPBS (1.8 ml) was gently placed in cuvette in addition to ferricytochrome C (final concentration, 50 µmol/L). […] Change in absorbance over time was determined and the amount of superoxide anion [ε=[…]] generated was determined over time and reported as pmoles O2^•-/min./10^6 cells.

y^+ transporter = assay: Cellular uptake of [3H]-L-arginine via y+ transport in the presence of NOS agonists and NO donors; assay type: cell-based, bovine; settings: for increase of [^3H]-LA uptake / increase of LA uptake: Ach 5 µM; for maximum inhibition of LA transport: Fig. 8; for inhibition of LA transport: data not shown
Protocol: Characterization of L-arginine transport system in bovine aortic endothelial cells. […] Prior to experiments, cells were split 1:4, transferred into 24 well plates, and allowed to grow to confluency. […] CaCl2, 1.8 mM; KCl 5.4 mM, choline 140 mM; […] Uptake of LA was terminated by addition of ice cold buffer and cells were washed three times with 1 ml of buffer. […] Cellular uptake of LA via B^α+ system was determined by substituting sodium chloride for choline and incubating as described above. The difference in uptake determined for both transporters and that observed for y+ alone represented the amount of LA uptake contributed by sodium-dependent B^α+ system. […] It has been previously reported that passive, non-saturable diffusion of LA can occur but only when extracellular levels of LA are within the millimolar concentration. […] Uptake of LA was terminated and total cellular transport of LA determined as described above.

[2] = molecular target: T1, nitric oxide synthase (NOS) (Bos taurus, UniProt P29473); assay: NO production in cultured endothelial cells (oxyhemoglobin to methemoglobin conversion and NO sensitive electrode); assay type: cell-based, bovine
T1 construct: DOX activity as a NOS agonist was investigated in cultured bovine aortic EC; endogenous in cells; host or cells: cultured bovine aortic endothelial cells
Description: Doxazosin, a selective alpha-1 blocker, is pharmacologically similar to prazosin and terazosin. It has been shown that selective alpha-1 blockers lower total and LDL cholesterol. Thus, these selective alpha-1 blockers may be useful in treating both hypertension and hypercholesterolemia. […] In fact, a wide variety of vasoactive agents (e.g. bradykinin, muscarinic agonists and growth factors) which increase tPA levels are also agonists of nitric oxide synthase (NOS). DOX activity as a NOS agonist was investigated in cultured bovine aortic EC using two methods to assess NO production: conversion of oxyhemoglobin to methamoglobin and a NO sensitive electrode. […] This increase in NO to DOX (10^-6 M) was blocked by 72% by prior administration of the NOS inhibitor, L-NAME (5 x 10^-4 M). In addition, the NO responses were accentuated by the presence of supplemental L-arginine (5 x 10^-4 M) by 65%. […] This increase in NO to ACH (10^-6 M) was blocked by 86% by prior administration of L-NAME. In addition, the NO responses were accentuated by 72% in the presence of supplemental L-arginine. DOX, therefore, appears to be a NOS agonist in EC.
For all experiments, human coronary artery endothelial cells (passage 3-5 - Clonetics) were maintained at 37°, […] and 5% CO2 in Medium 199 (M199) supplemented with 5% fetal bovine serum (FBS, Hyclone), 10% iron supplemented FBS (Hyclone), thymidine (100mg mL^-1), penicillin G (100U mL^-1) and streptomycin (100µg mL^-1).
In all experiments, the effects of pretreatment with L-NAME (10^-3 M) in blocking the actions of DOX, and excess L-arginine (10^-3 M) in reversing any L-NAME effect was examined. Acetylcholine, an eNOS agonist, was used in all experiments as the positive control at concentrations of 10^-7 and 10^-6 M.
Methemoglobin - The effect of DOX on NO production in EC was determined using a photometric assay for conversion of oxyhemoglobin to methemoglobin. For this assay, EC grown to confluency on microcarrier beads are placed into a water-jacketed chromatography column and superfused with a Kreb's-Ringer buffer containing 3 µM oxyhemoglobin and 50 µM LA (L-arginine). Perfusate is then directed into a flow-through cuvette in a dual wavelength spectrophotometer and change in absorbancy (415/405 nm) is measured. Experimental stimulation was carried out by 3 min infusion periods of DOX added to buffer perfusion to yield final concentrations of 10^-7 and 10^-6 M. For analysis, we determined the area under the curve for the change in absorbancy response/min caused by DOX assuming a one to one correspondence for NO and metHb production, the known stoichiometric balance for this reaction. No electrode - NO production was measured with a NO meter connected to a polargraphic NO electrode as previously described. The NO sensor probe will be inserted vertically into 24-well plates containing confluent EC such that the tip of the electrode is submerged 2 mm under the surface of medium (above - 1ml). The reaction was initiated when desired concentrations of DOX are added to the well. Calibrations were performed with S-nitroso-acetyl-penicillamine.

[3] = cited from earlier work
[4] = read-out: reduced O2· induced by SP

## NC(CCS)C(=O)O (racemic) [DLH, D,L-homocysteine]
Bovine aortic EC; 24 hr. exposure, 1.1-5 mM
  LA uptake decreased: 25-40%
Bovine aortic EC; Bos taurus, 5 mM, 6 hr exposure, read-out: maximum increase of LA uptake
  activation at 5000 µM: 53%

## CNc1ccc2oc(C[C@H]3O[C@@]4(CC[C@H]3C)O[C@H]([C@H](C)C(=O)c3ccc[nH]3)[C@H](C)C[C@H]4C)nc2c1C(=O)O [A-23187]
[1]
  increased O2· production above basal levels: 2.5 fold

## CC(=O)OCC[N+](C)(C)C [Acetylcholine, acetylcholine]
y^+ transporter; 2 minute exposure
  increase of [^3H]-LA uptake: 22%
y^+ transporter; 15 minute (maximum)
  increase of [^3H]-LA uptake: 27%
y^+ transporter; 30 minutes
  increase of LA uptake: 16%
y^+ transporter; 60 minutes
  increase of LA uptake: 15.5%

## COc1cc2nc(N3CCN(C(=O)C4COc5ccccc5O4)CC3)nc(N)c2cc1OC (stereo not shown) [DOX, Doxazosin]
[2]; DOX 10^-7 - 10^-5 M, cultured bovine aortic EC
  dose-related increase in NO production: 64-145%

## NCCCN(CCCN)/[N+]([O-])=N/O [DPTA-NONOate, dipropylenetriamine NONOate]
y^+ transporter; 0.01 µM DPTA, 2 hour exposure
  maximum inhibition of LA transport: 20%
y^+ transporter; 1 µM DPTA-NONOate (2 µM NO), 15 and 30 min
  effect on y^+ system: no significant effect
y^+ transporter; 1 µM DPTA-NONOate (2 µM NO), 1 hour exposure
  inhibition of LA transport: 22%
y^+ transporter; 1 µM DPTA-NONOate (2 µM NO), 2 hour exposure
  inhibition of LA transport: 24%
y^+ transporter; 1 µM DPTA-NONOate (2 µM NO), 4 hour exposure
  inhibition of LA transport: 29%
y^+ transporter; 1 µM DPTA, 2 hour exposure
  maximum inhibition of LA transport: 24%
y^+ transporter; 10 µM DPTA, 2 hour exposure
  maximum inhibition of LA transport: 44%

## COC(=O)[C@@H](N)CCCN=C(N)N[N+](=O)[O-] [L-NAME, n-ω-nitro-L-arginine methyl ester]
[1]
  inhibition of O2^•- production induced by A-23187: 58%
[1]; 1 h, read-out: prevented basal production of O2^•-
  inhibition at 500 µM: 100%
[1]; [4]
  inhibition at 500 µM: 81%
[2]; NO response to ACH 10^-6 M
  increase in NO blocked by prior administration of L-NAME: 86%
[2]; read-out: increase in NO blocked by prior administration of L-NAME
  inhibition at 500 µM: 72%

## N=C(N)NCCC[C@H](N)C(=O)O [L-arginine]
[1]
  inhibition of O2^•- production induced by A-23187: 60%
[1]; [4]
  inhibition at 500 µM: 51%
[1]; LA 5 x 10^-4M, basal
  prevention of basal production of O2^•-: not
[2]; NO responses to DOX, L-arginine 5 x 10^-4 M
  NO responses accentuated by supplemental L-arginine: 65%
[2]; NO responses to acetylcholine
  NO responses accentuated in the presence of supplemental L-arginine: 72%

## N[C@H]1CCSC1=O [LHT, L-homocysteine thiolactone]
Bovine aortic EC; after 6 and 24 hrs exposure, 1.1-5 mM
  LA transport: dose-related decrease

## CC(=O)N[C@H](C(=O)O)C(C)(C)SN=O [SNAP, S-nitroso-acetyl-penicillamine]
[3]
  t1/2 of NO donation: ~ 10 minutes
y^+ transporter; 200 µM SNAP (0.4 µM NO), ten minutes of exposure
  increased activity of the Y^+ transporter: 37%
y^+ transporter; 200 µM SNAP, 30 minute exposure
  elevation of Y^+ transporter activity: not seen
y^+ transporter; 200 µM SNAP, 1 hour
  uptake of [^3H]-LA reduced: 22%
y^+ transporter; 200 µM SNAP, 2 hour exposure
  reduction of uptake of [^3H]-LA: 46%
y^+ transporter; 200 µM SNAP, 3 hour exposure
  reduction of uptake of [^3H]-LA: 45%
y^+ transporter; 200 µM SNAP, 5 hour exposure
  reduction of uptake of [^3H]-LA: 36%

## CSCC[C@H](NC(=O)[C@H](CC(C)C)NC(=O)CNC(=O)[C@H](Cc1ccccc1)NC(=O)[C@H](Cc1ccccc1)NC(=O)[C@H](CCC(N)=O)NC(=O)[C@H](CCC(N)=O)NC(=O)[C@@H]1CCCN1C(=O)[C@H](CCCCN)NC(=O)[C@@H]1CCCN1C(=O)[C@@H](N)CCCNC(=N)N)C(N)=O [SP, substance P]
y^+ transporter; SP 1µM, 15 minutes exposure
  increase of y^+ transport of LA into cells: 24%
y^+ transporter; SP 1µM, 30 minutes
  increase of y^+ transport of LA into cells: 24%
y^+ transporter; SP 1µM, 60 minutes
  increase of y^+ transport of LA into cells: 21%
y^+ transporter; SP 1µM, 2 hour exposure
  y^+ transporter activity enhanced from control values: ≤ 34%
y^+ transporter; SP 1µM, 3 hour exposure
  cellular LA increase: 27%
y^+ transporter; SP 1µM, 5 hour exposure
  cellular LA increase: 21%
[1]; 1 µM, 60 minute period
  increased O2· production above basal levels: 3.5 fold

## bradykinin (RPPGFSPFR; Bradykinin; UniProt P01042 381-389, looked up) [BK]
y^+ transporter; BK 1αM, 15 minute exposure (maximum)
  increase of cellular transport of LA: 42%
y^+ transporter; BK 1αM, 30 minutes
  increase of cellular transport of LA: 39%
y^+ transporter; BK 1αM, 60 minutes
  increase of cellular transport of LA: 16%
y^+ transporter; BK 1αM, 2 hour exposure
  enhanced cellular uptake of LA: 38%
y^+ transporter; BK 1αM, 3 hour exposure
  increase in transport of LA: 19%
y^+ transporter; BK 1αM, 5 hour exposure
  increase in transport of LA: 22%
